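Step 1: Grow cells in 96-well plates. Step 2: Expose to compound for 48 hours at 5 concentrations. Step 3: Interpolate endpoints linearly; if unreached, use highest concentration. At the GI50, growth is halved. TGI is the concentration that stops growth completely.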
Assays:
Test in all cases: inhibition of tumour cell growth, NCI panel, 48 h
786-0 renal = test system: 786-0 renal
A498 renal = test system: A498 renal
A549 NSCLC = test system: A549 NSCLC
ACHN renal = test system: ACHN renal
BT-549 breast = test system: BT-549 breast
CAKI-1 renal = test system: CAKI-1 renal
CCRF-CEM leukemia = test system: CCRF-CEM leukemia
COLO 205 colon = test system: COLO 205 colon
DU-145 prostate = test system: DU-145 prostate
EKVX NSCLC = test system: EKVX NSCLC
HCC-2998 colon = test system: HCC-2998 colon
HCT-116 colon = test system: HCT-116 colon
HCT-15 colon = test system: HCT-15 colon
HL-60(TB) leukemia = test system: HL-60(TB) leukemia
HOP-62 NSCLC = test system: HOP-62 NSCLC
HOP-92 NSCLC = test system: HOP-92 NSCLC
HS 578T breast = test system: HS 578T breast
HT29 colon = test system: HT29 colon
IGROV1 ovarian = test system: IGROV1 ovarian
K-562 leukemia = test system: K-562 leukemia
KM12 colon = test system: KM12 colon
LOX IMVI melanoma = test system: LOX IMVI melanoma
M14 melanoma = test system: M14 melanoma
MALME-3M melanoma = test system: MALME-3M melanoma
MCF7 breast = test system: MCF7 breast
MDA-MB-231 breast = test system: MDA-MB-231 breast
MDA-MB-435 = test system: MDA-MB-435
MOLT-4 leukemia = test system: MOLT-4 leukemia
NCI-H226 lung = test system: NCI-H226 lung
NCI-H23 lung = test system: NCI-H23 lung
NCI-H460 lung = test system: NCI-H460 lung
NCI-H522 lung = test system: NCI-H522 lung
NCI/ADR-RES ovarian = test system: NCI/ADR-RES ovarian
OVCAR-3 ovarian = test system: OVCAR-3 ovarian
OVCAR-4 ovarian = test system: OVCAR-4 ovarian
OVCAR-5 ovarian = test system: OVCAR-5 ovarian
OVCAR-8 ovarian = test system: OVCAR-8 ovarian
PC-3 prostate = test system: PC-3 prostate
RPMI-8226 leukemia = test system: RPMI-8226 leukemia
RXF 393 renal = test system: RXF 393 renal
SF-268 CNS = test system: SF-268 CNS
SF-295 CNS = test system: SF-295 CNS
SF-539 CNS = test system: SF-539 CNS
SK-MEL-2 melanoma = test system: SK-MEL-2 melanoma
SK-MEL-28 melanoma = test system: SK-MEL-28 melanoma
SK-MEL-5 melanoma = test system: SK-MEL-5 melanoma
SK-OV-3 ovarian = test system: SK-OV-3 ovarian
SN12C renal = test system: SN12C renal
SNB-19 CNS = test system: SNB-19 CNS
SNB-75 CNS = test system: SNB-75 CNS
SR leukemia = test system: SR leukemia
SW-620 colon = test system: SW-620 colon
T-47D breast = test system: T-47D breast
TK-10 renal = test system: TK-10 renal
U251 CNS = test system: U251 CNS
UACC-257 melanoma = test system: UACC-257 melanoma
UACC-62 melanoma = test system: UACC-62 melanoma
UO-31 renal = test system: UO-31 renal

Question: What does the source list for `COc1nccc(-c2c(-c3ccc(F)cc3)ncn2C2CCC(O)CC2)n1` (stereo unspecified)?
Answer: GI50 (786-0 renal): > 100 µM; TGI (786-0 renal): > 100 µM; GI50 (A498 renal): 21.5 µM; TGI (A498 renal): > 100 µM; GI50 (A549 NSCLC): 32.4 µM; TGI (A549 NSCLC): > 100 µM; GI50 (ACHN renal): 14.8 µM; TGI (ACHN renal): > 100 µM; GI50 (BT-549 breast): > 100 µM; TGI (BT-549 breast): > 100 µM; GI50 (CAKI-1 renal): 25.2 µM; TGI (CAKI-1 renal): > 100 µM; GI50 (CCRF-CEM leukemia): > 84.5 µM; TGI (CCRF-CEM leukemia): > 100 µM; GI50 (COLO 205 colon): 99.6 µM; TGI (COLO 205 colon): > 100 µM; GI50 (DU-145 prostate): 72.8 µM; TGI (DU-145 prostate): > 100 µM; GI50 (EKVX NSCLC): 78.2 µM; TGI (EKVX NSCLC): > 100 µM; GI50 (HCC-2998 colon): > 100 µM; TGI (HCC-2998 colon): > 100 µM; GI50 (HCT-116 colon): 79.3 µM; TGI (HCT-116 colon): > 100 µM; GI50 (HCT-15 colon): 36.6 µM; TGI (HCT-15 colon): > 100 µM; GI50 (HL-60(TB) leukemia): 56.7 µM; TGI (HL-60(TB) leukemia): > 100 µM; GI50 (HOP-62 NSCLC): 99 µM; TGI (HOP-62 NSCLC): > 100 µM; GI50 (HOP-92 NSCLC): > 100 µM; TGI (HOP-92 NSCLC): > 100 µM; GI50 (HS 578T breast): > 100 µM; TGI (HS 578T breast): > 100 µM; GI50 (HT29 colon): 42.6 µM; TGI (HT29 colon): > 100 µM; GI50 (IGROV1 ovarian): 22.2 µM; TGI (IGROV1 ovarian): > 100 µM; GI50 (K-562 leukemia): 44.1 µM; TGI (K-562 leukemia): > 100 µM; GI50 (KM12 colon): > 85.6 µM; TGI (KM12 colon): > 100 µM; GI50 (LOX IMVI melanoma): > 92.9 µM; TGI (LOX IMVI melanoma): > 100 µM; GI50 (M14 melanoma): > 100 µM; TGI (M14 melanoma): > 100 µM; GI50 (MALME-3M melanoma): > 100 µM; TGI (MALME-3M melanoma): > 100 µM; GI50 (MCF7 breast): 24.9 µM; TGI (MCF7 breast): > 100 µM; GI50 (MDA-MB-231 breast): > 100 µM; TGI (MDA-MB-231 breast): > 100 µM; GI50 (MDA-MB-435): 54.3 µM; TGI (MDA-MB-435): > 100 µM; GI50 (MOLT-4 leukemia): > 95.3 µM; TGI (MOLT-4 leukemia): > 100 µM; GI50 (NCI-H226 lung): > 77.8 µM; TGI (NCI-H226 lung): > 100 µM; GI50 (NCI-H23 lung): > 100 µM; TGI (NCI-H23 lung): > 100 µM; GI50 (NCI-H460 lung): 29.9 µM; TGI (NCI-H460 lung): > 100 µM; GI50 (NCI-H522 lung): > 60.1 µM; TGI (NCI-H522 lung): > 100 µM; GI50 (NCI/ADR-RES ovarian): > 100 µM; TGI (NCI/ADR-RES ovarian): > 100 µM; GI50 (OVCAR-3 ovarian): > 82 µM; TGI (OVCAR-3 ovarian): > 100 µM; GI50 (OVCAR-4 ovarian): > 65.3 µM; TGI (OVCAR-4 ovarian): > 100 µM; GI50 (OVCAR-5 ovarian): 43.8 µM; TGI (OVCAR-5 ovarian): > 100 µM; GI50 (OVCAR-8 ovarian): 89.1 µM; TGI (OVCAR-8 ovarian): > 100 µM; GI50 (PC-3 prostate): > 100 µM; TGI (PC-3 prostate): > 100 µM; GI50 (RPMI-8226 leukemia): > 70.3 µM; TGI (RPMI-8226 leukemia): > 100 µM; GI50 (RXF 393 renal): > 79.2 µM; TGI (RXF 393 renal): > 100 µM; GI50 (SF-268 CNS): > 84.6 µM; TGI (SF-268 CNS): > 100 µM; GI50 (SF-295 CNS): > 100 µM; TGI (SF-295 CNS): > 100 µM; GI50 (SF-539 CNS): > 100 µM; TGI (SF-539 CNS): > 100 µM; GI50 (SK-MEL-2 melanoma): > 100 µM; TGI (SK-MEL-2 melanoma): > 100 µM; GI50 (SK-MEL-28 melanoma): > 58.3 µM; TGI (SK-MEL-28 melanoma): > 100 µM; GI50 (SK-MEL-5 melanoma): 43.1 µM; TGI (SK-MEL-5 melanoma): > 100 µM; GI50 (SK-OV-3 ovarian): 57.3 µM; TGI (SK-OV-3 ovarian): > 100 µM; GI50 (SN12C renal): 61.8 µM; TGI (SN12C renal): > 100 µM; GI50 (SNB-19 CNS): > 100 µM; TGI (SNB-19 CNS): > 100 µM; GI50 (SNB-75 CNS): > 100 µM; TGI (SNB-75 CNS): > 100 µM; GI50 (SR leukemia): 43 µM; TGI (SR leukemia): > 100 µM; GI50 (SW-620 colon): > 70.8 µM; TGI (SW-620 colon): > 100 µM; GI50 (T-47D breast): 54.5 µM; TGI (T-47D breast): > 100 µM; GI50 (TK-10 renal): 39.4 µM; TGI (TK-10 renal): > 100 µM; GI50 (U251 CNS): > 86.9 µM; TGI (U251 CNS): > 100 µM; GI50 (UACC-257 melanoma): > 100 µM; TGI (UACC-257 melanoma): > 100 µM; GI50 (UACC-62 melanoma): > 86.9 µM; TGI (UACC-62 melanoma): > 100 µM; GI50 (UO-31 renal): 10.1 µM; TGI (UO-31 renal): > 100 µM
